This experiment addresses LRRK2 (leucine-rich repeat kinase 2) (Homo sapiens (Human), UniProt Q5S007). Put plainly: Inhibitory effect on LRRK2 in vitro (LANCE kinase assay). The experiment is classed as biochemical. On the procedure:
The inhibitory effect of Compounds 1 to 62 on LRRK2 (leucine-rich repeat kinase 2) in vitro was measured. In the analysis of the results, IC50 values were calculated for a quantitative comparison of the in vitro activity.
After the compound was dissolved in 100% DMSO at 10 mM, it was serially diluted to the range of 1 μM to 10 μM using biochemical LRRK2 assay buffer (50 mM HEPES (4-(2-hydroxyethyl)-1-piperazineethanesulfonic acid) pH 7.5, 10 mM MgCl2, 1 mM EGTA (1,2-bis(o-aminophenoxy)ethane-N,N,N′,N′-tetraacetic acid), 2 mM DTT (dithiothreitol), and 0.01% TWEEN-20 (Aldrich)). Purified LRRK2 (CARNA BIOSCIENCES) was added to a black U-bottom 96-well microtiter plate containing 6 μl of the serially diluted compound, followed by incubation at room temperature for 30 minutes. For the kinase reaction, ATP and a substrate solution specific urea-polypeptide (ULIGHT™-poly TK, PerkinElimer) were added. The reaction was carried out at room temperature for 1 hour, and it was detected with an detection solution (brand name: LANCE™) containing EDTA. A LANCE detection solution containing europium-labeled antibody ([…] PT66) was added, followed by incubation at room temperature for 50 minutes, to terminate the kinase experiment. The phosphorylated substrate was detected by 665 nm emission measurement. IC50 values were calculated by a non-linear regression analysis using a Prism program (PRISM™ software) with reference to the absence of a kinase inhibitor.
As a comparative assay, a compound LRR2-IN-1, that known to be a reference compound for LRRK2 inhibitor, have also tested an inhibitory activity.

The mark [1] stands for this setting: Table 1, class symbols, read-out: LRRK2 inhibition rate (IC50).
[2] abbreviates: purified LRRK2, Table 6, read-out: IC50.

Where two headings read alike, the source gives them in different places.

Chain of LRRK2 (leucine-rich repeat kinase 2) (Q5S007 whole entry): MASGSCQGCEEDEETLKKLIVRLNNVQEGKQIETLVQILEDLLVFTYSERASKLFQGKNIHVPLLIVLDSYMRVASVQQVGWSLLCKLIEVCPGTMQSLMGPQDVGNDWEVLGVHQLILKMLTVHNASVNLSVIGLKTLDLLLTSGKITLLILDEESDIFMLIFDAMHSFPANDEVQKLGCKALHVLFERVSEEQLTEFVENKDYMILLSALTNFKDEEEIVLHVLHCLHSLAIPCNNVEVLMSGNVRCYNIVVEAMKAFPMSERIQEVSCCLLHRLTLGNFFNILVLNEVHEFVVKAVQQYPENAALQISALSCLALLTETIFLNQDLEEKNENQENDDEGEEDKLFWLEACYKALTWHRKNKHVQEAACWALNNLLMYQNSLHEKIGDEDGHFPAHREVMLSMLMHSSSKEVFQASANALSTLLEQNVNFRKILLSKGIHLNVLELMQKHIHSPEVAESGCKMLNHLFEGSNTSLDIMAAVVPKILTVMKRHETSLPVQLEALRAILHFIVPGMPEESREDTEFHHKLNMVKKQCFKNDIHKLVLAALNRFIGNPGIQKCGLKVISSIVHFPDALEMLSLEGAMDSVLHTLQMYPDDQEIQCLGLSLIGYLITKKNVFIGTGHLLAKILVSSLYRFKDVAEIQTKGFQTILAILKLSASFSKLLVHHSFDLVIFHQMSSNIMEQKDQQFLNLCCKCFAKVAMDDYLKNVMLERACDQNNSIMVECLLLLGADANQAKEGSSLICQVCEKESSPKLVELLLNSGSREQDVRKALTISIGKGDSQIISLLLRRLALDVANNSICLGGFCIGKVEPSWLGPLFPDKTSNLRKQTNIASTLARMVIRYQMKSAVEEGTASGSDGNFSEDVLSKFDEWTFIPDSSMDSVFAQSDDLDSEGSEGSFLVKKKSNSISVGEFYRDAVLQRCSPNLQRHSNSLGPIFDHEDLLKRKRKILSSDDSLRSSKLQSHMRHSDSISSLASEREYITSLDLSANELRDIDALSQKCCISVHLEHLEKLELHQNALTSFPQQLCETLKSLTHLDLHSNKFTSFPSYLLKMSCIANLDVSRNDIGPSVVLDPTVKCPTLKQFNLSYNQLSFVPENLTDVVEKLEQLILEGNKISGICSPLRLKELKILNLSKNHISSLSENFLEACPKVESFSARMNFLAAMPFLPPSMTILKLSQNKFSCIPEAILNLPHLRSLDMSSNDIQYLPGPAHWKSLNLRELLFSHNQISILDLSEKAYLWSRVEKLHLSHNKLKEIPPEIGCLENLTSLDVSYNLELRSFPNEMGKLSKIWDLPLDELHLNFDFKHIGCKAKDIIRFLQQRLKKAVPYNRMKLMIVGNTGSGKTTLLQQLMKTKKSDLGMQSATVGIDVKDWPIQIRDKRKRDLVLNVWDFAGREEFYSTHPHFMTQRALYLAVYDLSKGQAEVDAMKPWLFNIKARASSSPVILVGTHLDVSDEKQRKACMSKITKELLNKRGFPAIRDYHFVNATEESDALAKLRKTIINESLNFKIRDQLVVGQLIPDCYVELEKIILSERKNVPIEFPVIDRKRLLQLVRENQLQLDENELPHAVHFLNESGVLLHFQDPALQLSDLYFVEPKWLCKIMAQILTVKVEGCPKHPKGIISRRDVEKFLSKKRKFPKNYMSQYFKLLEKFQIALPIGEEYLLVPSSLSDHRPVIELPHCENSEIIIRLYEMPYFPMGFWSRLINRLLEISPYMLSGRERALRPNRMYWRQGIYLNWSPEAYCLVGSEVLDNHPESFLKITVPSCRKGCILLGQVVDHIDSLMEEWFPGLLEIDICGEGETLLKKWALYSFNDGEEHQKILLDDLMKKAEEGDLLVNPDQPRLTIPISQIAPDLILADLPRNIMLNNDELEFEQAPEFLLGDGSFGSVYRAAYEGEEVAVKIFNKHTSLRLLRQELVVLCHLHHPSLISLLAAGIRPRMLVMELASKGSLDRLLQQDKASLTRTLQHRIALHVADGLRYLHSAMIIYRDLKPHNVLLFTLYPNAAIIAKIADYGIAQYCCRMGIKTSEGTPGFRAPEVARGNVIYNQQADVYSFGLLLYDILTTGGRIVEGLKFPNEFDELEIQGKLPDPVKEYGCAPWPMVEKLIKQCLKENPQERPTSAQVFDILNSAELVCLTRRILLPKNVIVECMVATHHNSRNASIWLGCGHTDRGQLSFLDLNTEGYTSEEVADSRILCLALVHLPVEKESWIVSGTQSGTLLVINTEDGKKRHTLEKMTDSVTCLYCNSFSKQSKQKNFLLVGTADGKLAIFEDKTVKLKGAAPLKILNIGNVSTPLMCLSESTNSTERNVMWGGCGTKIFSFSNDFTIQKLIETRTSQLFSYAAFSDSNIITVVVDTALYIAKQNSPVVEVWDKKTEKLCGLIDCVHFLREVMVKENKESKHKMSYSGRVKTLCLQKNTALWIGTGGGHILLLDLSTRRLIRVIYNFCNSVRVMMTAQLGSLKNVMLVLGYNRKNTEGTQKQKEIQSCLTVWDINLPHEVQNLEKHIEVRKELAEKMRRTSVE

As for `CCn1cc(Cl)c2cnc(Nc3cn(-c4ccc(F)cc4)nc3Cl)nc21` [Compound 21, 5-chloro-N-(3-chloro-1-(4-fluorophenyl)-1H-pyrazol-4-yl)-7-ethyl-7H-pyrrolo[2,3-d]pyrimidin-2-amine], the IC50 under setting [1] was in the range of 100 to 1000 nM.

`Clc1nn(C2CC2)cc1Nc1ncc2c(Cl)cn(C3CC3)c2n1` [Compound 15, 5-chloro-N-(3-chloro-1-cyclopropyl-1H-pyrazol-4-yl)-7-cyclopropyl-7H-pyrrolo[2,3-d]pyrimidin-2-amine]: under setting [1], the IC50 is 10 to 100 nM.

Regarding `CCn1cc(Cl)c2cnc(Nc3c(C)nn(C4CCN(S(C)(=O)=O)CC4)c3C)nc21` [Compound 34, 5-chloro-N-(3,5-dimethyl-1-(1-(methylsulfonyl)piperidin-4-yl)-1H-pyrazol-4-yl)-7-ethyl-7H-pyrrolo[2,3-d]pyrimidin-2-amine], the IC50 under setting [1] was 100 to 1000 nM.

Consider `CCn1cc(Cl)c2cnc(Nc3cnn(-c4ccc(Cl)cc4)c3Cl)nc21` [Compound 22, 5-chloro-N-(5-chloro-1-(4-chlorophenyl)-1H-pyrazol-4-yl)-7-ethyl-7H-pyrrolo[2,3-d]pyrimidin-2-amine], for which the half-maximal inhibitory concentration (IC50) under setting [1] was 100 to 1000 nM.

With `COc1cc(C(=O)N2CCC(N3CCN(C)CC3)CC2)ccc1Nc1ncc2c(n1)N(C)c1ccccc1C(=O)N2C` [LRRK2-IN-1, reference compound], the IC50 under setting [2] was 8.2 nM.

For the compound `CCn1cc(Cl)c2cnc(Nc3cn(C4CN(C(=O)C5CC5)C4)nc3Cl)nc21` [Compound 41, (3-(3-chloro-4-(5-chloro-7-ethyl-7H-pyrrolo[2,3-d]pyrimidin-2-ylamino)-1H-pyrazol-1-yl)azetidin-1-yl)(cyclopropyl)methanone], the IC50 under setting [1] was in the range of 10 to 100 nM.

Turning to `CCn1cc(Cl)c2cnc(Nc3cn(C4CCN(C(=O)C(C)C)CC4)nc3Cl)nc21` [Compound 26, 1-(4-(3-chloro-4-(5-chloro-7-ethyl-7H-pyrrolo[2,3-d]pyrimidin-2-ylamino)-1H-pyrazol-1-yl)piperidin-1-yl)-2-methylpropane-1-one], the IC50 under setting [1] fell in the range of 10 to 100 nM.

Turning to `CCn1nc(Cl)c2cnc(Nc3cn(C4CCN(C(=O)N5CCOCC5)CC4)nc3Cl)nc21` [Compound 54, (4-(3-chloro-4-(3-chloro-1-ethyl-1H-pyrazolo[3,4-d]pyrimidin-6-ylamino)-1H-pyrazol-1-yl)piperidin-1-yl)(morpholino)methanone], under setting [1], the IC50 is less than 10 nM.

Consider `CCn1nc(Cl)c2cnc(Nc3cn(-c4ccc(F)cc4)nc3Cl)nc21` [Compound 44, 3-chloro-N-(3-chloro-1-(4-fluorophenyl)-1H-pyrazol-4-yl)-1-ethyl-1H-pyrazolo[3,4-d]pyrimidin-6-amine], for which the IC50 under setting [1] lay within 10 to 100 nM.

`CS(=O)(=O)N1CCC(n2cc(Nc3ncc4c(Cl)nn(C5CC5)c4n3)c(Cl)n2)CC1` [Compound 46, 3-chloro-N-(3-chloro-1-(1-(methylsulfonyl)piperidin-4-yl)-1H-pyrazol-4-yl)-1-cyclopropyl-1H-pyrazolo[3,4-d]pyrimidin-6-amine]: the IC50 under setting [1] is less than 10 nM and the IC50 under setting [2] worked out at 7.91 nM.

On to `CCn1cc(Cl)c2cnc(Nc3cn([C@@H]4CCN(C(=O)C5CCCC5)C4)nc3Cl)nc21` [Compound 38, (R)-(3-(3-chloro-4-(5-chloro-7-ethyl-7H-pyrrolo[2,3-d]pyrimidin-2-ylamino)-1H-pyrazol-1-yl)pyrrolidin-1-yl)(cyclopentyl)methanone], for which the IC50 under setting [1] was in the range of 10 to 100 nM.

Take `CCn1nc(Cl)c2cnc(Nc3cn(C4CCN(C(=O)C(F)(F)F)CC4)nc3Cl)nc21` [Compound 48, 1-(4-(3-chloro-4-(3-chloro-1-ethyl-1H-pyrazolo[3,4-d]pyrimidin-6-ylamino)-1H-pyrazol-1-yl)piperidin-1-yl)-2,2,2-trifluoroethanone]: under setting [1], the IC50 lay within 10 to 100 nM.

Regarding `CC(C)n1cc(Nc2ncc3c(Cl)cn(C)c3n2)c(Cl)n1` [Compound 3, 5-chloro-N-(3-chloro-1-isopropyl-1H-pyrazol-4-yl)-7-methyl-7H-pyrrolo[2,3-d]pyrimidin-2-amine], the IC50 under setting [1] lay within 10 to 100 nM.

In the case of `CS(=O)(=O)N1CCC(n2cc(Nc3ncc4c(Cl)nn(CC(F)(F)F)c4n3)c(Cl)n2)CC1` [Compound 49, 3-chloro-N-(3-chloro-1-(1-(methylsulfonyl)piperidin-4-yl)-1H-pyrazol-4-yl)-1-(2,2,2-trifluoroethyl)-1H-pyrazolo[3,4-d]pyrimidin-6-amine], the IC50 under setting [1] is 10 to 100 nM.

For `CCn1nc(Cl)c2cnc(Nc3cn(C4CCN(S(C)(=O)=O)CC4)nc3Cl)nc21` [Compound 55, 3-chloro-N-(3-chloro-1-(1-(methylsulfonyl)piperidin-4-yl)-1H-pyrazol-4-yl)-1-ethyl-1H-pyrazolo[3,4-d]pyrimidin-6-amine], the IC50 was less than 10 nM under setting [1] and 4.49 nM under setting [2].

On to `CCn1cc(Cl)c2cnc(Nc3cn(CCOC)nc3Cl)nc21` [Compound 12, 5-chloro-N-(3-chloro-1-(2-methoxyethyl)-1H-pyrazol-4-yl)-7-ethyl-7H-pyrrolo[2,3-d]pyrimidin-2-amine], for which the half-maximal inhibitory concentration (IC50) under setting [1] fell in the range of 10 to 100 nM.

Regarding `CCn1cc(Cl)c2cnc(Nc3cn(C4CCN(C(=O)N5CCOCC5)CC4)nc3Cl)nc21` [Compound 31, (4-(3-chloro-4-(5-chloro-7-ethyl-7H-pyrrolo[2,3-d]pyrimidin-2-ylamino)-1H-pyrazol-1-yl)piperidin-1-yl)(morpholino)methanone], the IC50 is less than 10 nM under setting [1] and 4.66 nM under setting [2].

`CCn1cc(Cl)c2cnc(Nc3cn(C4CC4)nc3Cl)nc21` [Compound 14, 5-chloro-N-(3-chloro-1-cyclopropyl-1H-pyrazol-4-yl)-7-ethyl-7H-pyrrolo[2,3-d]pyrimidin-2-amine]: under setting [1], the IC50 was in the range of 10 to 100 nM.

Regarding `CCn1cc(Cl)c2cnc(Nc3cn(C4CCN(C(=O)C5CC5)CC4)nc3Cl)nc21` [Compound 24, (4-(3-chloro-4-(5-chloro-7-ethyl-7H-pyrrolo[2,3-d]pyrimidin-2-ylamino)-1H-pyrazol-1-yl)piperidin-1-yl)(cyclopropyl)methanone], under setting [1], the IC50 was 10 to 100 nM.

Take `CCn1nc(Cl)c2cnc(Nc3c(Cl)nn(C4CCN(C(=O)C5CC5)CC4)c3C)nc21` [Compound 56, (4-(3-chloro-4-(3-chloro-1-ethyl-1H-pyrazolo[3,4-d]pyrimidin-6-ylamino)-5-methyl-1H-pyrazol-1-yl)piperidin-1-yl)(cyclopropyl)methanone]: the IC50 under setting [1] lay within 100 to 1000 nM.

Take `CCn1cc(Cl)c2cnc(Nc3cn(C(C)C)nc3Cl)nc21` [Compound 8, 5-chloro-N-(3-chloro-1-isopropyl-1H-pyrazol-4-yl)-7-ethyl-7H-pyrrolo[2,3-d]pyrimidin-2-amine]: the IC50 under setting [1] was in the range of 10 to 100 nM.

On to `CCn1nc(Cl)c2cnc(Nc3cnn(C4CCN(S(C)(=O)=O)CC4)c3Cl)nc21` [Compound 62, 3-chloro-N-(5-chloro-1-(1-(methylsulfonyl)piperidin-4-yl)-1H-pyrazol-4-yl)-1-ethyl-1H-pyrazolo[3,4-d]pyrimidin-6-amine], for which the IC50 under setting [1] was 10 to 100 nM.

With `CCn1cc(Cl)c2cnc(Nc3cn(C4CCN(S(C)(=O)=O)CC4)nc3Cl)nc21` [Compound 25, 5-chloro-N-(3-chloro-1-(1-(methylsulfonyl)piperidin-4-yl)-1H-pyrazol-4-yl)-7-ethyl-7H-pyrrolo[2,3-d]pyrimidin-2-amine], the IC50 was less than 10 nM under setting [1] and 6.67 nM under setting [2].

(Values after US11370796B2, “Substituted pyrazoles as LRRK2 inhibitors” (OSCOTEC INC., priority 2017, dated 2022).)
